According to patent publication US8017602B2, “N-(2-(2-(5-hydroxy-3-oxo-3,4-dihydro-2H-benzo[b][1,4]oxazin-8-yl)ethylamino)ethyl)-3-(phenethoxy)propanamide derivatives, processes for their preparation, pharmaceutical compositions containing them and their use in therapy” (AstraZeneca AB, priority 2008, dated 2011):
Where a name gives a salt, the structure may show the parent alone.

Legend:
[1] = target: T1, recombinant human α1D receptor (Homo sapiens, UniProt P25100); assay: Adrenergic α1D selectivity binding assay ([3H]-prazosin); conditions: inhibition of [3H]-prazosin binding, HEK293 membranes, read-out: α1 bind pIC50 (converted)
T1 construct: expressed in transfected cells; host or cells: HEK293
T1 sequence (P25100 1-572): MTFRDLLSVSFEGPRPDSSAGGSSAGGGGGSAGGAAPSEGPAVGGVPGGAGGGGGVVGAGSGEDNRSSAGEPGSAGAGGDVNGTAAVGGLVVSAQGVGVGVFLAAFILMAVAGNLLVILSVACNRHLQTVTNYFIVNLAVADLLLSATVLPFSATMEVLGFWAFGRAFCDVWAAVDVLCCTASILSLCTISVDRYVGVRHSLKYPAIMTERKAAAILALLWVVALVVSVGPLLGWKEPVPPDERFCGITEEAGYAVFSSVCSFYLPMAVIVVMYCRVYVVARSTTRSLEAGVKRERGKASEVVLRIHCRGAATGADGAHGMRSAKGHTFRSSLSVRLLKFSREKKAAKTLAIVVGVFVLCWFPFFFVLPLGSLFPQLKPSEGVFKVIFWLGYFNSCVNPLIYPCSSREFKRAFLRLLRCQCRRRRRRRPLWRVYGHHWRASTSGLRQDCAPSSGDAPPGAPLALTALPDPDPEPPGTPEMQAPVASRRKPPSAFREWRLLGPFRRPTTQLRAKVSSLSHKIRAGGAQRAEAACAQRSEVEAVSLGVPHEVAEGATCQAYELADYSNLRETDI
Protocol: Membranes were prepared from human embryonic kidney 293 (HEK293) cells expressing recombinant human α1D receptor. These were diluted in Assay Buffer (50 mM HEPES, 1 mM EDTA, pH 7.4) to provide a final concentration of membranes that gave a clear window between maximum and minimum specific binding.
(§1) Assays were performed in U-bottomed 96-well polypropylene plates. 10 μl [^3H]-prazosin (0.3 nM final concentration) and 10 μl of test compound (10× final concentration) were added to each test well. For each assay plate 8 replicates were obtained for [^3H]-prazosin binding in the presence of 10 μl vehicle (10% (v/v) DMSO in Assay Buffer; defining maximum binding) or 10 μL BMY7378 (10 μM final concentration; defining non-specific binding (NSB)). Membranes were then added to achieve a final volume of 100 μL. The plates were incubated for 2 h at room temperature and then filtered onto PEI coated GF/B filter plates, pre-soaked for 1 h in Assay Buffer, using a 96-well plate Tomtec cell harvester. Five washes with 250 μl wash buffer (50 mM HEPES, 1 mM EDTA, pH 7.4) were performed at 4° C. to remove unbound radioactivity. The plates were dried then sealed from underneath using Packard plate sealers and MicroScint-O (50 μl) was added to each well. The plates were sealed (TopSeal A) and filter-bound radioactivity was measured with a scintillation counter (TopCount, Packard BioScience) using a 3-minute counting protocol.
(§2) Total specific binding (B0) was determined by subtracting the mean NSB from the mean maximum binding. NSB values were also subtracted from values from all other wells. […] Data was fitted to a four parameter logistic equation to determine the compound potency, which was expressed as pIC50 (negative log molar concentration inducing 50% inhibition of [^3H]-prazosin binding).

[2] = target: T2, recombinant human adrenergic beta 1 receptors (Homo sapiens, UniProt P08588); assay: Adrenergic β1 selectivity binding assay ([125I]-Iodocyanopindolol); conditions: inhibition of [125I]-Iodocyanopindolol binding, human β1 membranes; read-out: β1 bind p IC50 (converted)
T2 construct: purchased Euroscreen
Protocol: Membranes containing recombinant human adrenergic beta 1 receptors were obtained from Euroscreen. These were diluted in Assay Buffer (50 mM HEPES, 1 mM EDTA, 120 mM NaCl, 0.1% gelatin, pH 7.4) to provide a final concentration of membranes that gave a clear window between maximum and minimum specific binding.
as §1, with “plates. 10 μL [^125I]-Iodocyanopindolol (0.036 nM final” for “plates. 10 μl [^3H]-prazosin (0.3 nM final”, “and 10 μL of test” for “and 10 μl of test”, “obtained for [^125I]-Iodocyanopindolol binding in” for “obtained for [^3H]-prazosin binding in”, “or 10 μl Propranolol (10 μM” for “or 10 μL BMY7378 (10 μM”, “with 250 μL wash buffer” for “with 250 μl wash buffer”, “mM EDTA, 120 mM NaCl, pH 7.4)” for “mM EDTA, pH 7.4)”
as §2, with “[^125I]-Iodocyanopindolol” for “[^3H]-prazosin”

T2 sequence (P08588 whole entry): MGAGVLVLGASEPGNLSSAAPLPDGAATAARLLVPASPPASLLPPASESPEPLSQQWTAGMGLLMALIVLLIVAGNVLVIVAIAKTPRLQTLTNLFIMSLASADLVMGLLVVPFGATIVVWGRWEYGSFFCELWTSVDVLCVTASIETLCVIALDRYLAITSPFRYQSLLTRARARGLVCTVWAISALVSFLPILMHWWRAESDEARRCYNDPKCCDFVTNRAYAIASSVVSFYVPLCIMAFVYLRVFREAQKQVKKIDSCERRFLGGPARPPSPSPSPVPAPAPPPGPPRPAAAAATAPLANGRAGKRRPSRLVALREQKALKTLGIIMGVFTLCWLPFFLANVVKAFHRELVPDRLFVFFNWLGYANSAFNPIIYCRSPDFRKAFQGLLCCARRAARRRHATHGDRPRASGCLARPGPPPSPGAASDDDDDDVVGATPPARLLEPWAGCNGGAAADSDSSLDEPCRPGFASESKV

Structure (SMILES) | IC50 [1] [µM] | IC50 [2] [µM]
CC(C)n1cc(-c2cccc(CCOCCC(=O)N(CCNCCc3ccc(O)c4c3OCC(=O)N4)C3CCCC3)c2)cn1 [Example 22, N-Cyclopentyl-N-(2-(2-(5-hydroxy-3-oxo-3,4-dihydro-2H-benzo[b][1,4]oxazin-8-yl)ethylamino)ethyl)-3-(3-(1-isopropyl-1H-pyrazol-4-yl)phenethoxy)propanamide Trifluoroacetic Acid Salt] | 0.794 | 5.01
CCn1cc(-c2cccc(CCOCCC(=O)N(CCNCCc3ccc(O)c4c3OCC(=O)N4)[C@H](C)C(C)(C)C)c2)cn1 [Example 25, (R)—N-(3,3-Dimethylbutan-2-yl)-3-(3-(1-ethyl-1H-pyrazol-4-yl)phenethoxy)-N-(2-(2-(5-hydroxy-3-oxo-3,4-dihydro-2H-benzo[b][1,4]oxazin-8-yl)ethylamino)ethyl)propanamide Trifluoroacetic Acid Salt] | 0.316 | > 10
C[C@@H](N(CCNCCc1ccc(O)c2c1OCC(=O)N2)C(=O)CCOCCc1cccc(-c2cnn(C)c2)c1)C(C)(C)C [Example 26, (R)—N-(3,3-Dimethylbutan-2-yl)-N-(2-(2-(5-hydroxy-3-oxo-3,4-dihydro-2H-benzo[b][1,4]oxazin-8-yl)ethylamino)ethyl)-3-(3-(1-methyl-1H-pyrazol-4-yl)phenethoxy)propanamide Trifluoroacetic Acid Salt] | 0.501 | > 10
CCCC[C@@H](C)N(CCNCCc1ccc(O)c2c1OCC(=O)N2)C(=O)CCOCCc1cccc(-c2cnn(C)c2)c1 [Example 30, (R)—N-(Hexan-2-yl)-N-(2-(2-(5-hydroxy-3-oxo-3,4-dihydro-2H-benzo[b][1,4]oxazin-8-yl)ethylamino)ethyl)-3-(3-(1-methyl-1H-pyrazol-4-yl)phenethoxy)propanamide Trifluoroacetic Acid Salt] | 1 | 3.98
Cc1nc(-c2cccc(CCOCCC(=O)N(CCNCCc3ccc(O)c4c3OCC(=O)N4)C3CCCCC3)c2)[nH]c1C [Example 32, N-Cyclohexyl-3-(3-(4,5-dimethyl-1H-imidazol-2-yl)phenethoxy)-N-(2-(2-(5-hydroxy-3-oxo-3,4-dihydro-2H-benzo[b][1,4]oxazin-8-yl)ethylamino)ethyl)propanamide] | 0.631 | 5.01
COCCn1cc(-c2cccc(CCOCCC(=O)N(CCNCCc3ccc(O)c4c3OCC(=O)N4)C3CCCCC3)c2)cn1 [Example 36, N-Cyclohexyl-N-(2-(2-(5-hydroxy-3-oxo-3,4-dihydro-2H-benzo[b][1,4]oxazin-8-yl)ethylamino)ethyl)-3-(3-(1-(2-methoxyethyl)-1H-pyrazol-4-yl)phenethoxy)propanamide Trifluoroacetic Acid Salt] | 2.51 | > 10

Next, values leading:

IC50 [1] [µM] | IC50 [2] [µM] | Structure (SMILES)
1.26 | 5.01 | CCn1cc(-c2cccc(CCOCCC(=O)N(CCNCCc3ccc(O)c4c3OCC(=O)N4)C3CCCC3)c2)cn1 [Example 24, N-Cyclopentyl-3-(3-(1-ethyl-1H-pyrazol-4-yl)phenethoxy)-N-(2-(2-(5-hydroxy-3-oxo-3,4-dihydro-2H-benzo[b][1,4]oxazin-8-yl)ethylamino)ethyl)propanamide Trifluoroacetic Acid Salt]
1 | > 10 | Cc1nc(-c2cccc(CCOCCC(=O)N(CCNCCc3ccc(O)c4c3OCC(=O)N4)C3CCCCC3)c2)no1 [Example 27, N-Cyclohexyl-N-(2-(2-(5-hydroxy-3-oxo-3,4-dihydro-2H-benzo[b][1,4]oxazin-8-yl)ethylamino)ethyl)-3-(3-(5-methyl-1,2,4-oxadiazol-3-yl)phenethoxy)propanamide Trifluoroacetic Acid Salt]
0.794 | > 10 | CCn1cc(-c2cccc(CCOCCC(=O)N(CCNCCc3ccc(O)c4c3OCC(=O)N4)C3CCCCC3)c2)cn1 [Example 28, N-Cyclohexyl-3-(3-(1-ethyl-1H-pyrazol-4-yl)phenethoxy)-N-(2-(2-(5-hydroxy-3-oxo-3,4-dihydro-2H-benzo[b][1,4]oxazin-8-yl)ethylamino)ethyl)propanamide]
1.58 | > 7.94 | CCn1ccnc1-c1cccc(CCOCCC(=O)N(CCNCCc2ccc(O)c3c2OCC(=O)N3)C2CCCCC2)c1 [Example 29, N-Cyclohexyl-3-(3-(1-ethyl-1H-imidazol-2-yl)phenethoxy)-N-(2-(2-(5-hydroxy-3-oxo-3,4-dihydro-2H-benzo[b][1,4]oxazin-8-yl)ethylamino)ethyl)propanamide Trifluoroacetic Acid Salt]
0.398 | 5.01 | Cn1cc(-c2cccc(CCOCCC(=O)N(CCNCCc3ccc(O)c4c3OCC(=O)N4)C3CCCCCC3)c2)cn1 [Example 31, N-Cycloheptyl-N-(2-(2-(5-hydroxy-3-oxo-3,4-dihydro-2H-benzo[b][1,4]oxazin-8-yl)ethylamino)ethyl)-3-(3-(1-methyl-1H-pyrazol-4-yl)phenethoxy)propanamide Trifluoroacetic Acid Salt]
2 | > 10 | Cn1ccnc1-c1cccc(CCOCCC(=O)N(CCNCCc2ccc(O)c3c2OCC(=O)N3)C2CCCCC2)c1 [Example 33, N-Cyclohexyl-N-(2-(2-(5-hydroxy-3-oxo-3,4-dihydro-2H-benzo[b][1,4]oxazin-8-yl)ethylamino)ethyl)-3-(3-(1-methyl-1H-imidazol-2-yl)phenethoxy)propanamide]
2 | > 10 | Cc1nc(-c2cccc(CCOCCC(=O)N(CCNCCc3ccc(O)c4c3OCC(=O)N4)C3CCCCC3)c2)cn1C [Example 35, N-Cyclohexyl-3-(3-(1,2-dimethyl-1H-imidazol-4-yl)phenethoxy)-N-(2-(2-(5-hydroxy-3-oxo-3,4-dihydro-2H-benzo[b][1,4]oxazin-8-yl)ethylamino)ethyl)propanamide Trifluoroacetic Acid Salt]
1 | > 10 | Cc1c(-c2cccc(CCOCCC(=O)N(CCNCCc3ccc(O)c4c3OCC(=O)N4)C3CCCCC3)c2)cnn1C [Example 37, N-Cyclohexyl-3-(3-(1,5-dimethyl-1H-pyrazol-4-yl)phenethoxy)-N-(2-(2-(5-hydroxy-3-oxo-3,4-dihydro-2H-benzo[b][1,4]oxazin-8-yl)ethylamino)ethyl)propanamide Trifluoroacetic Acid Salt]
